For experiment [1], the target named is T1, His tagged PTPN2 (TC45) protein (Homo sapiens, UniProt P17706).
T1 construct: made in house
T1 sequence (P17706 with tags, fused parts or gaps isoform P17706-2): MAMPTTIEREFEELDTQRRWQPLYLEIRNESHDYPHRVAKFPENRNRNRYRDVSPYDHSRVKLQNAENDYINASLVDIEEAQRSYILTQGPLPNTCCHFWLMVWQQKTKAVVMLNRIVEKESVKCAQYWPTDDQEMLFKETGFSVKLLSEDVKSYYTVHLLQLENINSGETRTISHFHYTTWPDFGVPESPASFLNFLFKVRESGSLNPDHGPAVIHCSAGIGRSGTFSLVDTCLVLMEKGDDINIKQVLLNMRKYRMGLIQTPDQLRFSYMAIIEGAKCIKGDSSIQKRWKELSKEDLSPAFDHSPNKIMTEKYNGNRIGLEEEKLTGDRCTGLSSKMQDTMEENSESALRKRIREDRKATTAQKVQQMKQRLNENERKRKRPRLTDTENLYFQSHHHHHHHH
Description: Mobility shift assay used to determine potency of PTPN2 inhibitors. As to conditions: enzyme 0.5 nM, substrate 2 μM; read-out: PTPN2 MSA IC50. In kind it is biochemical. Put shortly: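 Microfluidic mobility-shift read-out (488/530 nm) of dephosphorylation of an OG488-tagged phosphotyrosine insulin receptor peptide, 2 μM, over 10 min at room temperature, after 10 min compound preincubation with 0.5 nM enzyme. Buffer: 50 mM HEPES pH 7.5, EGTA, EDTA, Tween 20, DTT. IC50 derived from % inhibition over 12-point 1:3 series.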

The target of experiment [2] is T2, His tagged full-length PTPN1 protein (Homo sapiens, UniProt P18031).
T2 construct: made in house
T2 sequence (P18031 with tags, fused parts or gaps): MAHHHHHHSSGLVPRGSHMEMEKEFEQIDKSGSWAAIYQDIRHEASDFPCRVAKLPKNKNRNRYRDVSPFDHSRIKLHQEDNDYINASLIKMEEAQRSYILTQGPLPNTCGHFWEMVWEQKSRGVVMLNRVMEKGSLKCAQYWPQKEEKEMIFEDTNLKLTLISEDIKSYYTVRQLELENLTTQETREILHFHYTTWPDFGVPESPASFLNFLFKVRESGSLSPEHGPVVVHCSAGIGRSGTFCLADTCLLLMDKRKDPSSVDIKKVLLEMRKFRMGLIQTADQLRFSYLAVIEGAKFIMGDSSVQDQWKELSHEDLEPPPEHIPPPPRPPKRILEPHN
Description: Mobility shift assay (MSA) used to determine potency of PTPN1 inhibitors. In kind it is biochemical. As to conditions: enzyme 0.5 nM, substrate 2 μM. Put shortly:
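Full-length His-tagged human PTPN1 (0.5 nM) was preincubated 10 min at room temperature with compound (12-point, 1:3 dilution) in HEPES pH 7.5 buffer with EGTA, EDTA, Tween 20 and DTT. A 2 μM fluorescent phospho-insulin receptor peptide was then added for 10 min before quench. Mobility-shift % conversion gave % inhibition and IC50.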

The subject of experiment [3] is B16F10 mouse melanoma cells. Put plainly: B16F10 IFNγ-induced cellular growth inhibition assay. In kind it is cell-based. As to conditions: B16-F10, with 0.5 ng/mL IFNγ, read-out: B16F10 GI IC50. The method in brief: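 B16F10 cells grown in DMEM+10% FBS, with or without 0.5 ng/mL final mouse IFNγ, and dosed in triplicate at 100 μM to 0.001 μM final (0.1% DMSO). Confluence imaged every 6 h for 5 days; percent growth inhibition versus DMSO/with-IFNγ control taken once DMSO/no-IFNγ wells exceeded 95% confluence, giving IC50.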

The values below come from patent US10851073B2, “Protein tyrosine phosphatase inhibitors and methods of use thereof” (Calico Life Sciences LLC, priority 2019, dated 2020).

`O=C1CN(c2c(O)cc3c(c2F)CC(OCC2CC(F)(F)C2)CC3)S(=O)(=O)N1` (stereo not drawn) [Compound 119, 5-{7-[(3,3-difluorocyclobutyl)methoxy]-1-fluoro-3-hydroxy-5,6,7,8-tetrahydronaphthalen-2-yl}-1λ^6,2,5-thiadiazolidine-1,1,3-trione]: the results for the IC50 in experiment [1], in experiment [2] and in experiment [3] were 1 to 10 nM, 1 to 10 nM and 1000 to 10000 nM, respectively.

Consider `O=C1CN(c2c(O)cc3c(c2F)CC(NCCCC(F)(F)F)CC3)S(=O)(=O)N1` (stereo not drawn) [Compound 120, 5-{1-fluoro-3-hydroxy-7-[(4,4,4-trifluorobutyl)amino]-5,6,7,8-tetrahydronaphthalen-2-yl}-1λ^6,2,5-thiadiazolidine-1,1,3-trione], for which the IC50 in experiment [1] was 1 to 10 nM; in experiment [2], 1 to 10 nM; in experiment [3] it was less than 1000 nM.

With `COC(C)(C)CCNC1CCc2cc(O)c(N3CC(=O)NS3(=O)=O)c(F)c2C1` (stereo not drawn) [Compound 122, 5-{1-fluoro-3-hydroxy-7-[(3-methoxy-3-methylbutyl)amino]-5,6,7,8-tetrahydronaphthalen-2-yl}-1λ^6,2,5-thiadiazolidine-1,1,3-trione], the IC50 in experiment [1] was 1 to 10 nM; in experiment [2] it was 10 to 100 nM; in experiment [3] it was 1000 to 10000 nM.

On to `CC(C)(CCNC1CCc2cc(O)c(N3CC(=O)NS3(=O)=O)c(F)c2C1)C(F)(F)F` (stereo not drawn) [Compound 123, 5-{1-fluoro-3-hydroxy-7-[(4,4,4-trifluoro-3,3-dimethylbutyl)amino]-5,6,7,8-tetrahydronaphthalen-2-yl}-1λ^6,2,5-thiadiazolidine-1,1,3-trione], for which the IC50 in experiment [1] lay in the range of 1 to 10 nM; in experiment [2], 1 to 10 nM; in experiment [3], 1000 to 10000 nM.

As for `O=C1CN(c2c(O)cc3c(c2F)CC(NCCC2(C(F)(F)F)CC2)CC3)S(=O)(=O)N1` (stereo not drawn) [Compound 124, 5-[1-fluoro-3-hydroxy-7-({2-[1-(trifluoromethyl)cyclopropyl]ethyl}amino)-5,6,7,8-tetrahydronaphthalen-2-yl]-1λ^6,2,5-thiadiazolidine-1,1,3-trione], the IC50 in experiment [1] was 1 to 10 nM; in experiment [2] it was 1 to 10 nM; in experiment [3] it was less than 1000 nM.

Take `O=C1CN(c2c(O)cc3c(c2F)CC(NCC(F)(F)c2ccccc2)CC3)S(=O)(=O)N1` (stereo not drawn) [Compound 125, 5-{7-[(2,2-difluoro-2-phenylethyl)amino]-1-fluoro-3-hydroxy-5,6,7,8-tetrahydronaphthalen-2-yl}-1λ^6,2,5-thiadiazolidine-1,1,3-trione]: the half-maximal inhibitory concentration (IC50) fell in the range of 1 to 10 nM in experiment [1], 10 to 100 nM in experiment [2] and 10000 to 100000 nM in experiment [3].

As for `O=C1CN(c2c(O)cc3c(c2F)CC(NCC(F)(F)CC2CC2)CC3)S(=O)(=O)N1` (stereo not drawn) [Compound 126, 5-{7-[(3-cyclopropyl-2,2-difluoropropyl)amino]-1-fluoro-3-hydroxy-5,6,7,8-tetrahydronaphthalen-2-yl}-1λ^6,2,5-thiadiazolidine-1,1,3-trione], the values for the IC50 in experiment [1], in experiment [2] and in experiment [3] were 1 to 10 nM, 1 to 10 nM and 1000 to 10000 nM, respectively.

In the case of `CC(C)(O)CCNC1CCc2cc(O)c(N3CC(=O)NS3(=O)=O)c(F)c2C1` (stereo not drawn) [Compound 127, 5-{1-fluoro-3-hydroxy-7-[(3-hydroxy-3-methylbutyl)amino]-5,6,7,8-tetrahydronaphthalen-2-yl}-1λ^6,2,5-thiadiazolidine-1,1,3-trione], the IC50 in experiment [1] is 1 to 10 nM; in experiment [2], 1 to 10 nM; in experiment [3], less than 1000 nM.

As for `CC(C)CCN(C)C1CCc2cc(O)c(N3CC(=O)NS3(=O)=O)c(F)c2C1` (stereo not drawn) [Compound 128, 5-{1-fluoro-3-hydroxy-7-[methyl(3-methylbutyl)amino]-5,6,7,8-tetrahydronaphthalen-2-yl}-1λ^6,2,5-thiadiazolidine-1,1,3-trione], the results for the IC50 in experiment [1], in experiment [2] and in experiment [3] were 1 to 10 nM, 1 to 10 nM and 1000 to 10000 nM, respectively.

As to `CC(C)CCCNC1CCc2cc(O)c(N3CC(=O)NS3(=O)=O)c(F)c2C1` (stereo not drawn) [Compound 129, 5-{1-fluoro-3-hydroxy-7-[(4-methylpentyl)amino]-5,6,7,8-tetrahydronaphthalen-2-yl}-1λ^6,2,5-thiadiazolidine-1,1,3-trione], the IC50 in experiment [1] was 1 to 10 nM; in experiment [2], 1 to 10 nM; in experiment [3], less than 1000 nM.

In the case of `O=C1CN(c2c(O)cc3c(c2F)CC(NCCC(O)(C(F)(F)F)C(F)(F)F)CC3)S(=O)(=O)N1` (stereo not drawn) [Compound 130, 5-(1-fluoro-3-hydroxy-7-{[4,4,4-trifluoro-3-hydroxy-3-(trifluoromethyl)butyl]amino}-5,6,7,8-tetrahydronaphthalen-2-yl)-1λ^6,2,5-thiadiazolidine-1,1,3-trione], the figures for the IC50 in experiment [1], in experiment [2] and in experiment [3] were 1 to 10 nM, 1 to 10 nM and 1000 to 10000 nM, respectively.

Regarding `O=C1CN(c2c(O)cc3c(c2F)CC(NCCC(C(F)(F)F)C(F)(F)F)CC3)S(=O)(=O)N1` (stereo not drawn) [Compound 131, 5-(1-fluoro-3-hydroxy-7-{[4,4,4-trifluoro-3-(trifluoromethyl)butyl]amino}-5,6,7,8-tetrahydronaphthalen-2-yl)-1λ^6,2,5-thiadiazolidine-1,1,3-trione], the half-maximal inhibitory concentration (IC50) in experiment [1] is 1 to 10 nM; in experiment [2], 1 to 10 nM; in experiment [3], less than 1000 nM.

Take `O=C1CN(c2c(O)cc3c(c2F)CC(NCCc2ccccn2)CC3)S(=O)(=O)N1` (stereo not drawn) [Compound 135, 5-(1-fluoro-3-hydroxy-7-{[2-(pyridin-2-yl)ethyl]amino}-5,6,7,8-tetrahydronaphthalen-2-yl)-1λ^6,2,5-thiadiazolidine-1,1,3-trione]: the results for the 50% inhibitory concentration (IC50) in experiment [1], in experiment [2] and in experiment [3] were 10 to 100 nM, 10 to 100 nM and 1000 to 10000 nM, respectively.

On to `O=C1CN(c2c(O)cc3c(c2F)CC(OCCCC(F)(F)F)CC3)S(=O)(=O)N1` (stereo not drawn) [Compound 142, 5-[1-fluoro-3-hydroxy-7-(4,4,4-trifluorobutoxy)-5,6,7,8-tetrahydronaphthalen-2-yl]-1λ^6,2,5-thiadiazolidine-1,1,3-trione], for which the concentration for half-maximal inhibition (IC50) in experiment [1] is 1 to 10 nM; in experiment [2], 10 to 100 nM; in experiment [3] it was 10000 to 100000 nM.

`CC(C)(C#N)CCNC1CCc2cc(O)c(N3CC(=O)NS3(=O)=O)c(F)c2C1` (stereo not drawn) [Compound 150, 4-{[8-fluoro-6-hydroxy-7-(1,1,4-trioxo-1λ^6,2,5-thiadiazolidin-2-yl)-1,2,3,4-tetrahydronaphthalen-2-yl]amino}-2,2-dimethylbutanenitrile]: the figures for the IC50 in experiment [1], in experiment [2] and in experiment [3] were 1 to 10 nM, 1 to 10 nM and 1000 to 10000 nM, respectively.

Turning to `O=C1CN(c2c(O)cc3c(c2F)CC(NCCC(O)C(F)(F)F)CC3)S(=O)(=O)N1` (stereo not drawn) [Compound 151, 5-{1-fluoro-3-hydroxy-7-[(4,4,4-trifluoro-3-hydroxybutyl)amino]-5,6,7,8-tetrahydronaphthalen-2-yl}-1λ^6,2,5-thiadiazolidine-1,1,3-trione], the results for the concentration for half-maximal inhibition (IC50) in experiment [1], in experiment [2] and in experiment [3] were 1 to 10 nM, 10 to 100 nM and 1000 to 10000 nM, respectively.

Regarding `O=C1CN(c2c(O)cc3c(c2F)CC(NCC(O)CC(F)(F)F)CC3)S(=O)(=O)N1` (stereo not drawn) [Compound 156, 5-{1-fluoro-3-hydroxy-7-[(4,4,4-trifluoro-2-hydroxybutyl)amino]-5,6,7,8-tetrahydronaphthalen-2-yl}-1λ^6,2,5-thiadiazolidine-1,1,3-trione], the IC50 in experiment [1] was 1 to 10 nM; in experiment [2], 1 to 10 nM; in experiment [3], less than 1000 nM.

For the compound `O=C1CN(c2c(O)cc3c(c2F)CC(NCCOC(F)F)CC3)S(=O)(=O)N1` (stereo not drawn) [Compound 157, 5-(7-{[2-(difluoromethoxy)ethyl]amino}-1-fluoro-3-hydroxy-5,6,7,8-tetrahydronaphthalen-2-yl)-1λ^6,2,5-thiadiazolidine-1,1,3-trione], the IC50 in experiment [1] lay within 1 to 10 nM; in experiment [2] it was 10 to 100 nM; in experiment [3], 1000 to 10000 nM.

With `CC(C)C1CCN(C2CCc3cc(O)c(N4CC(=O)NS4(=O)=O)c(F)c3C2)C1` (stereo not drawn) [Compound 172, 5-{1-fluoro-3-hydroxy-7-[3-(propan-2-yl)pyrrolidin-1-yl]-5,6,7,8-tetrahydronaphthalen-2-yl}-1λ^6,2,5-thiadiazolidine-1,1,3-trione], the IC50 in experiment [1] lay within 10 to 100 nM; in experiment [2], 10 to 100 nM; in experiment [3], 1000 to 10000 nM.
